Converted amounts (≈) assume the structure as drawn. Where two headings read alike, the source gives them in different places. Peptide text beside a SMILES is read from it. * marks the point of attachment. βNA = c1ccc2cc(N*)ccc2c1
Legend:
[1] = system: S. epidermidis; test: MIC, broth microdilution (CLSI); format: cell-based, Staphylococcus epidermidis; settings: Staphylococcus epidermidis, read-out: minimum inhibitory concentration
Method: (§1) S. aureus, S. epidermidis, E. faecalis, and E. faecium strains were routinely cultivated on tryptic soy agar (TSA) and grown for 18 h at 37 °C. S. aureus single colonies were subsequently transferred into 2 mL of tryptic soy broth (TSB) and grown for a further 18 h at 37 °C while being shaken at 180 rpm. S. pyogenes, S. agalactiae, and S. dysgalactiae strains were routinely cultured on TSA supplemented with 5% sheep blood and grown for 18 h at 37 °C with 5% CO2. E. coli was grown in LB broth at 37 °C. For LtaS-deficient strains, TSB was supplemented with 0.5 M NaCl to provide an osmotically balanced environment and instead grown at 30 °C. For strains harboring the pRMC2 tetracycline inducible vector,[61] the growth medium was supplemented with 10 μg/mL chloramphenicol and […] anhydrotetracycline hydrochloride (Sigma). Phenylalanine-arginine β-naphthylamide (PAβN) (Sigma) was dissolved in sterile water.
(§2) B. subtilis, staphylococcal, and enterococcal strains were grown in Mueller Hinton broth (MHB), while streptococcal strains were grown in MHB supplemented with 5% laked horse blood. All strains were grown for 18 h at 37 °C. The overnight cultures were subsequently subcultured 1:200 and grown to the exponential phase (OD600nm = 0.5–0.6) in fresh broth. 1771 and its derivatives 9–14 were reconstituted in DMSO and further diluted by performing a 1:2 serial dilution ranging between 256 and 0.125 μg/mL in a 96-well microtiter plate. One hundred microliters of 0.5 McFarland standardized inoculum (approximately equal to 5 × 10^5 cfu) were then dispensed into each well in the 96-well microtiter plate. The plate was incubated for 18 h at 37 °C.

[2] = system: S. aureus; test: MIC, broth microdilution (CLSI); format: cell-based, Staphylococcus aureus; settings: for MIC: Staphylococcus aureus, read-out: minimum inhibitory concentration; for fold increase in the MIC when compared to 1771: S. aureus and S. epidermidis strains
Method: as §1, §2

[3] = system: S. aureus strain SH1000; test: Biofilm prevention, crystal violet assay; format: cell-based, Staphylococcus aureus; settings: for biofilm prevention compared with 1771: SH1000; for concentration causing a 50% reduction in biofilm formation: SH1000, 24 h
Method: (§3) An indication of the biofilm prevention capabilities of 1771 and its derivatives 9–14 was achieved through the application of the crystal violet assay. S. aureus strain SH1000 and S. epidermidis strain RP62A were used, as they are strong biofilm formers. Overnight cultures were diluted 1:200 in fresh TSB containing 0.5% glucose (TSB-G), and 100 μL was added to individual wells in a 96-well microtiter plate. One hundred microliters of 1771 and 9–14 were diluted in TSB-G and added to bacteria at a final concentration ranging from 256 to 0.25 μg/mL with subsequent incubation for 24 h at 37 °C in a static incubator. Following incubation, biofilms were washed four times with ddH2O before being stained with 150 μL of 0.1% crystal violet for 30 min at room temperature. Following a further four washes in ddH2O, wells were resuspended in 200 μL of 7% acetic acid. The absorbance intensity of the crystal violet was measured at abs595nm in a Sunrise plate reader. Biomass formed was measured as a percentage of the no-compound control.

[4] = system: S. epidermidis strain RP62A; test: Biofilm prevention, crystal violet assay; format: cell-based, Staphylococcus epidermidis; settings: for concentration causing a 50% reduction in biofilm formation: 24 h
Method: as §3

[5] = system: E. coli strain K12; test: Growth inhibition in combination with PAβN; format: cell-based, Escherichia coli; settings: PAβN alone up to 100 μg/mL
Method: Phenylalanine-arginine β-naphthylamide (PAβN) is a well-studied efflux pump inhibitor, which can also permeabilize the outer membrane of Gram-negative organisms.[40] […] Without the addition of PAβN (0 μg/mL), neither 1771 nor 13 had any growth inhibitory activity at concentrations up to 64 μg/mL. With the addition of 25 μg/mL of PAβN, the E. coli strain K12 could still grow in the presence of 64 μg/mL of 1771 or 13; however, the growth rate was severely impacted in a dose-dependent manner. […] To further evaluate the Gram-negative coverage of 1771 and 13, we also tested 1771 or 13 in combination with PAβN against Pseudomonas aeruginosa strain PAO1, Klebsiella pneumoniae strain 699 (clinical isolate), and Acinetobacter baumannii strain DF1000 (clinical isolate) (Figure S6a–c).
Figure 8 Permeabilization of the outer membrane renders E. coli susceptible to 1771 and 13. Bacterial growth curves of (a) 1771 and (b) 13 (0–64 μg/mL) in combination with 0, 25, 50, and 100 μg/mL of PAβN. The bacterial growth (OD600nm) was plotted against time following 18 h of growth at 37 °C. The icons represent the mean of three biological replicates.

SMILES	MIC ([1]; strain 305)	MIC ([1]; strain 311)	MIC ([1]; strain 319)	MIC ([1]; strain 322)	MIC ([1]; strain 771)	MIC ([1]; strain 780)	MIC ([1]; strain RP62A)	MIC ([2]; NEWMAN, strain Newman)	MIC ([2]; strain EMRSA-15)	MIC ([2]; strain LAC)	MIC ([2]; strain MRSA252)	MIC ([2]; strain MW2)	MIC ([2]; strain Mu3)	MIC ([2]; strain Mu50)	MIC ([2]; strain SH1000)	MIC ([2]; strain TW20)	biofilm prevention compared with 1771 [3]	biofilm prevention compared with 1771 [4]	fold increase in the MIC when compared to 1771 [2]	concentration causing a 50% reduction in biofilm formation [3]	also measured
O=C(COC(=O)Cc1coc2ccc3ccccc3c12)Nc1nnc(-c2ccc(F)cc2)o1 [Compound 12, 2-((5-(4-Fluorophenyl)-1,3,4-oxadiazol-2-yl)amino)-2-oxoethyl 2-(Naphtho[2,1-b]furan-1-yl)acetate]	8 µg/mL (≈ 18 µM)	4 to 8 µg/mL (≈ 8.98 to 18 µM)	4 to 8 µg/mL (≈ 8.98 to 18 µM)	8 µg/mL (≈ 18 µM)	4 to 8 µg/mL (≈ 8.98 to 18 µM)	4 to 8 µg/mL (≈ 8.98 to 18 µM)	4 to 8 µg/mL (≈ 8.98 to 18 µM)	8 µg/mL (≈ 18 µM)	8 µg/mL (≈ 18 µM)	8 µg/mL (≈ 18 µM)	16 µg/mL (≈ 35.9 µM)	8 µg/mL (≈ 18 µM)	8 µg/mL (≈ 18 µM)	4 to 8 µg/mL (≈ 8.98 to 18 µM)	8 µg/mL (≈ 18 µM)	8 µg/mL (≈ 18 µM)	worse than 1771	better	–	–	–
O=C(COC(=O)Cc1coc2ccc3ccccc3c12)Nc1nnc(-c2cccc(Cl)c2)o1 [Compound 10, 2-((5-(3-Chlorophenyl)-1,3,4-oxadiazol-2-yl)amino)-2-oxoethyl 2-(Naphtho[2,1-b]furan-1-yl)acetate]	32 to 64 µg/mL (≈ 69.3 to 139 µM)	32 to 64 µg/mL (≈ 69.3 to 139 µM)	64 µg/mL (≈ 139 µM)	64 µg/mL (≈ 139 µM)	32 to 64 µg/mL (≈ 69.3 to 139 µM)	32 to 64 µg/mL (≈ 69.3 to 139 µM)	64 µg/mL (≈ 139 µM)	64 µg/mL (≈ 139 µM)	32 to 64 µg/mL (≈ 69.3 to 139 µM)	64 µg/mL (≈ 139 µM)	64 µg/mL (≈ 139 µM)	64 µg/mL (≈ 139 µM)	64 µg/mL (≈ 139 µM)	64 µg/mL (≈ 139 µM)	64 µg/mL (≈ 139 µM)	64 µg/mL (≈ 139 µM)	–	–	4- to 16 fold	32 to 64 µg/mL	concentration causing a 50% reduction in biofilm formation [4]: 16 to 64 µg/mL
NC(N)=NCCC[C@H](NC(=O)[C@@H](N)Cc1ccccc1)C(=O)Nc1ccc2ccccc2c1 [PAβN, Phenylalanine-arginine β-naphthylamide] (H-Phe-Arg-βNA)	–	–	–	–	–	–	–	–	–	–	–	–	–	–	–	–	–	–	–	–	impact on growth [5]: very limited impact on growth
COc1ccc2c(ccc3occ(CC(=O)OCC(=O)Nc4nnc(-c5ccccc5)o4)c32)c1 [Compound 9, 2-Oxo-2-((5-phenyl-1,3,4-oxadiazol-2-yl)amino)ethyl 2-(7-Methoxynaphtho[2,1-b]furan-1-yl)acetate]	64 µg/mL (≈ 140 µM)	64 µg/mL (≈ 140 µM)	64 µg/mL (≈ 140 µM)	64 µg/mL (≈ 140 µM)	64 µg/mL (≈ 140 µM)	32 µg/mL (≈ 70 µM)	32 µg/mL (≈ 70 µM)	32 µg/mL (≈ 70 µM)	64 µg/mL (≈ 140 µM)	32 to 64 µg/mL (≈ 70 to 140 µM)	64 µg/mL (≈ 140 µM)	64 µg/mL (≈ 140 µM)	64 µg/mL (≈ 140 µM)	64 µg/mL (≈ 140 µM)	32 µg/mL (≈ 70 µM)	32 µg/mL (≈ 70 µM)	–	–	4- to 16 fold	32 to 64 µg/mL	concentration causing a 50% reduction in biofilm formation [4]: 16 to 64 µg/mL
COc1ccc2c(ccc3occ(CC(=O)OCC(=O)Nc4nnc(-c5cccc(Cl)c5)o4)c32)c1 [Compound 11, 2-((5-(3-Chlorophenyl)-1,3,4-oxadiazol-2-yl)amino)-2-oxoethyl 2-(7-Methoxynaphtho[2,1-b]furan-1-yl)acetate]	2 to 4 µg/mL (≈ 4.07 to 8.13 µM)	2 µg/mL (≈ 4.07 µM)	2 µg/mL (≈ 4.07 µM)	4 µg/mL (≈ 8.13 µM)	2 µg/mL (≈ 4.07 µM)	4 µg/mL (≈ 8.13 µM)	2 to 4 µg/mL (≈ 4.07 to 8.13 µM)	2 µg/mL (≈ 4.07 µM)	2 µg/mL (≈ 4.07 µM)	4 µg/mL (≈ 8.13 µM)	4 µg/mL (≈ 8.13 µM)	2 µg/mL (≈ 4.07 µM)	2 µg/mL (≈ 4.07 µM)	2 µg/mL (≈ 4.07 µM)	2 µg/mL (≈ 4.07 µM)	2 µg/mL (≈ 4.07 µM)	better than 1771	better than 1771	–	–	–

— PMC10644342, “Improved Antibacterial Activity of 1,3,4-Oxadiazole-Based Compounds That Restrict Staphylococcus aureus Growth Independent of LtaS Function” (ACS Infectious Diseases, 2023)
